Each structure is given as a SMILES string. Activity calls are given as the source filed them. Rule as the data show it: actives have a measured IC50 and inactives only a lower limit.

In the assay the target is Envelope glycoprotein gp160 (Human immunodeficiency virus 1, UniProt Q6QLK5). Nature of the assay: inhibitors of HIV fusion peptide binding, primary screen, biochemical, uHTS, fluorescence dequenching (AID 1986).
Envelope glycoprotein gp160, sequence (Q6QLK5 whole entry, the tested form may be a part): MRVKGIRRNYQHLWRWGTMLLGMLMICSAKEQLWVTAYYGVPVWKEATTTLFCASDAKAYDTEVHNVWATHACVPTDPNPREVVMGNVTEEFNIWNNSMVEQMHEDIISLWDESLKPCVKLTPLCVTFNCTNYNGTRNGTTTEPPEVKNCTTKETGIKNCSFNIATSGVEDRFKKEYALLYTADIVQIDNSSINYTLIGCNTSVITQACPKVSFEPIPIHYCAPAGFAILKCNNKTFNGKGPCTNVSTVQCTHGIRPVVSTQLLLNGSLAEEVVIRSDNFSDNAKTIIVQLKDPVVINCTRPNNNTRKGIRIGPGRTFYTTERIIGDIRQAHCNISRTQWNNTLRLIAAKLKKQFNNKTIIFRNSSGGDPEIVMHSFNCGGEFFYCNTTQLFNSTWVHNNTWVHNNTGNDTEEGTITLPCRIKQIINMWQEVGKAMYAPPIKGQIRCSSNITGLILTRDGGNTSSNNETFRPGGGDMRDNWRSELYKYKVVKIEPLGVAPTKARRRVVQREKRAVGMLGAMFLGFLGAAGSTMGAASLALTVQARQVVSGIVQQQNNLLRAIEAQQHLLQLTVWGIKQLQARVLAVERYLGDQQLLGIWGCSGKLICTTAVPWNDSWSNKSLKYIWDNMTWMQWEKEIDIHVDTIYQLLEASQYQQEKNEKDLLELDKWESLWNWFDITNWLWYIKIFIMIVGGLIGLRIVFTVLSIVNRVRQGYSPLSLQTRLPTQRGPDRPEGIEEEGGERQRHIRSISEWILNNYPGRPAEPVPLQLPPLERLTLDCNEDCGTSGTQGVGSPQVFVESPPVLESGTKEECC
As a reminder, the IC50 is the concentration at which inhibition is half-maximal. In the case of `CC(C)(C)OC(=O)N1CCC(c2cc(O)n3ncc(C(=O)Nc4ccc(F)c(Cl)c4)c3n2)CC1`, the IC50 was 82.2 µM (active).
In the case of `O=C1N/C(=N\c2ccccc2Cl)S/C1=C\c1cccc([N+](=O)[O-])c1O`, the IC50 is 22.1 µM (active).
Regarding `Nc1c(S(=O)(=O)O)cc(NC(=O)c2ccccc2)c2c1C(=O)c1ccccc1C2=O`, the IC50 was 12.1 µM (active).
Take `CCOc1cc(Br)cc(C(c2c(C(=O)O)[nH]c3ccccc23)c2c(C(=O)O)[nH]c3ccccc23)c1O`: the IC50 is 5.92 µM (active).
`Cc1ccc(-c2nn(-c3ccccc3)cc2/C=C2\SC(=S)N(CC(=O)O)C2=O)cc1`: the IC50 was 12.3 µM (active).

The values above are taken from ChEMBL document CHEMBL1201862, “PubChem BioAssay data set” (2004).
